Results reported in PubChem BioAssay AID248 (DTP/NCI, 2004).
Several values for one entry are separate records, joined by “and”; a condition that tells them apart may be missing. Identical values can stand only once. Toxic doses and inconclusive results are not listed. Cut-off read from the data, not from the text of the source: active = T/C of 150% or more; inactive = T/C below 125%.

Tested on: L1210 leukemia ip in BDF1 mice, survival T/C
Assay: NCI In Vivo Anticancer Drug Screen. Data for tumor model L1210 Leukemia (intraperitoneal) in B6D2F1 (BDF1) mice
Conditions: endpoint: mean survival time, higher = longer survival
Summary of the method: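 Antitumor effect is assessed in tumor-bearing animals. Survival in the compound arm is compared with a vehicle-dosed control arm and expressed as their quotient.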

[1] = dose: 100.0 mg/kg/injection, schedule: Q04DX003 (ip), vehicle: Klucel (hydroxypropylcellulose) (HPC)
[2] = dose: 200.0 mg/kg/injection, schedule: Q04DX003 (ip), vehicle: Klucel (hydroxypropylcellulose) (HPC)
[3] = dose: 400.0 mg/kg/injection, schedule: Q04DX003 (ip), vehicle: Klucel (hydroxypropylcellulose) (HPC)
[4] = dose: 100.0 mg/kg/injection, schedule: Q01DX001 (ip), vehicle: Klucel (hydroxypropylcellulose) (HPC)
[5] = dose: 200.0 mg/kg/injection, schedule: Q01DX001 (ip), vehicle: Klucel (hydroxypropylcellulose) (HPC)
[6] = dose: 100.0 mg/kg/injection, schedule: Q04DX002 (ip), vehicle: saline with Tween-80
[7] = dose: 200.0 mg/kg/injection, schedule: Q04DX002 (ip), vehicle: saline with Tween-80
[8] = dose: 100.0 mg/kg/injection, schedule: Q01DX001 (ip), vehicle: saline
[9] = dose: 200.0 mg/kg/injection, schedule: Q01DX001 (ip), vehicle: saline
[10] = dose: 400.0 mg/kg/injection, schedule: Q01DX001 (ip), vehicle: saline
[11] = dose: 100.0 mg/kg/injection, schedule: Q01DX001 (ip), vehicle: carboxymethylcellulose (CMC)
[12] = dose: 200.0 mg/kg/injection, schedule: Q01DX001 (ip), vehicle: carboxymethylcellulose (CMC)
[13] = dose: 400.0 mg/kg/injection, schedule: Q01DX001 (ip), vehicle: carboxymethylcellulose (CMC)
[14] = dose: 12.5 mg/kg/injection, schedule: Q04DX003 (ip), vehicle: Klucel (hydroxypropylcellulose) (HPC)
[15] = dose: 25.0 mg/kg/injection, schedule: Q04DX003 (ip), vehicle: Klucel (hydroxypropylcellulose) (HPC)

Measured: T/C

COc1ccc(OC)c(NC(=O)Nc2ccc(N(C)C)cc2)c1
inactive: [1] 93 % of control | [2] 97 % of control | [3] 95 % of control

ClCc1ccccc1CCl
inactive: dose: 5.0 mg/kg/injection, schedule: Q01DX015 (ip), vehicle: carboxymethylcellulose (CMC) 90 % of control | dose: 10.0 mg/kg/injection, schedule: Q01DX015 (ip), vehicle: carboxymethylcellulose (CMC) 87 % of control

O=C(COc1cc(Cl)c(Cl)cc1Cl)Oc1ccc(Cl)cc1Cl
inactive: dose: 100.0 mg/kg/injection, schedule: Q04DX002 (ip), vehicle: Klucel (hydroxypropylcellulose) (HPC) 94 % of control | dose: 200.0 mg/kg/injection, schedule: Q04DX002 (ip), vehicle: Klucel (hydroxypropylcellulose) (HPC) 91 % of control | dose: 400.0 mg/kg/injection, schedule: Q04DX002 (ip), vehicle: Klucel (hydroxypropylcellulose) (HPC) 98 % of control

Cc1nc(N)[nH]c(=O)c1NC(=O)c1ccc(N)cc1
inactive: dose: 12.5 mg/kg/injection, schedule: Q04DX002 (ip), vehicle: saline with Tween-80 101 % of control | dose: 25.0 mg/kg/injection, schedule: Q04DX002 (ip), vehicle: saline with Tween-80 96 % of control | dose: 50.0 mg/kg/injection, schedule: Q04DX002 (ip), vehicle: saline with Tween-80 99 % of control

Cc1ccc(S(=O)(=O)/C=C\S(=O)(=O)c2ccc(C)cc2)cc1
inactive: dose: 12.5 mg/kg/injection, schedule: Q01DX009 (ip), vehicle: saline 98 % of control | dose: 25.0 mg/kg/injection, schedule: Q01DX009 (ip), vehicle: saline 105 % of control | dose: 25.0 mg/kg/injection, schedule: Q04DX003 (ip), vehicle: acetone 92 % of control | dose: 50.0 mg/kg/injection, schedule: Q01DX009 (ip), vehicle: saline 86 % of control | dose: 50.0 mg/kg/injection, schedule: Q04DX003 (ip), vehicle: acetone 100 % of control | dose: 100.0 mg/kg/injection, schedule: Q01DX001 (ip), vehicle: acetone 90 % of control

CC(C)CC(=O)Nc1ccccc1
inactive: [1] 105 % of control | dose: 100.0 mg/kg/injection, schedule: Q04DX003 (ip), vehicle: other 98 % of control | [2] 101 % of control | dose: 200.0 mg/kg/injection, schedule: Q04DX003 (ip), vehicle: other 98 % of control | [3] 89 % of control | dose: 400.0 mg/kg/injection, schedule: Q04DX003 (ip), vehicle: other 89 % of control

Cc1cc(C)c([N+](=O)[O-])cc1N
inactive: dose: 50.0 mg/kg/injection, schedule: Q01DX001 (ip), vehicle: Klucel (hydroxypropylcellulose) (HPC) 101 % of control | [4] 98 % of control | [5] 93 % of control

CN(C)c1ccc2nc(C(=O)O)c(=O)n(C)c2c1
inactive: [4] 101 % of control | [5] 97 % of control

CC1=COC2CCCCC2O1 (stereo not given) (tested in a mixture with another compound)
inactive: dose: 50.0 mg/kg/injection, schedule: Q01DX009 (ip), vehicle: acetone 92 % of control | dose: 100.0 mg/kg/injection, schedule: Q01DX009 (ip), vehicle: acetone 95 % of control | dose: 100.0 mg/kg/injection, schedule: Q04DX003 (ip), vehicle: acetone 103 % of control and 94 % of control | dose: 200.0 mg/kg/injection, schedule: Q04DX003 (ip), vehicle: acetone 104 % of control and 96 % of control and 100 % of control | dose: 400.0 mg/kg/injection, schedule: Q04DX003 (ip), vehicle: acetone 96 % of control and 89 % of control

CC/C(C)=C\CC/C(C)=C/COc1cccc(OC)c1
inactive: [6] 108 % of control | [7] 101 % of control | dose: 400.0 mg/kg/injection, schedule: Q04DX002 (ip), vehicle: saline with Tween-80 103 % of control

Cc1ccc(-c2nc(C#N)c(C#N)nc2-c2ccc(C)cc2)cc1
inactive: [8] 98 % of control | [9] 101 % of control | [10] 101 % of control

Cc1ccc(S(=O)(=O)OCC23CC4C5CC2C3(COS(=O)(=O)c2ccc(C)cc2)CC54)cc1
inactive: dose: 75.0 mg/kg/injection, schedule: Q01DX009 (ip), vehicle: Klucel (hydroxypropylcellulose) (HPC) 95 % of control | dose: 150.0 mg/kg/injection, schedule: Q01DX009 (ip), vehicle: Klucel (hydroxypropylcellulose) (HPC) 98 % of control | dose: 300.0 mg/kg/injection, schedule: Q01DX009 (ip), vehicle: Klucel (hydroxypropylcellulose) (HPC) 93 % of control

COC(=O)C1CC(NC(C)=O)C(OC(C)=O)C1OC(C)=O (stereo not given)
inactive: [8] 94 % of control | [9] 94 % of control | [10] 104 % of control

FC1(F)C2Cc3ccccc3C2C1(F)F (stereo not given)
inactive: [1] 96 % of control | [2] 98 % of control | [3] 100 % of control

Cc1cc(N(CCCl)CCCl)ccc1C=NCCCCN=Cc1ccc(N(CCCl)CCCl)cc1C
inactive: dose: 50.0 mg/kg/injection, schedule: Q01DX001 (ip), vehicle: carboxymethylcellulose (CMC) 104 % of control | [11] 106 % of control | [12] 101 % of control | [13] 101 % of control

Cc1cc(C)nc(NC(N)=NCCc2ccccc2)n1
inactive: dose: 12.5 mg/kg/injection, schedule: Q01DX009 (ip), vehicle: Klucel (hydroxypropylcellulose) (HPC) 101 % of control | [14] 102 % of control | dose: 25.0 mg/kg/injection, schedule: Q01DX009 (ip), vehicle: Klucel (hydroxypropylcellulose) (HPC) 101 % of control | [15] 100 % of control | dose: 50.0 mg/kg/injection, schedule: Q01DX009 (ip), vehicle: Klucel (hydroxypropylcellulose) (HPC) 101 % of control | dose: 50.0 mg/kg/injection, schedule: Q04DX003 (ip), vehicle: Klucel (hydroxypropylcellulose) (HPC) 102 % of control

CCOC(=O)CC#N
inactive: dose: 100.0 mg/kg/injection, schedule: Q04DX003 (ip), vehicle: saline 103 % of control | dose: 200.0 mg/kg/injection, schedule: Q04DX003 (ip), vehicle: saline 103 % of control | dose: 400.0 mg/kg/injection, schedule: Q04DX003 (ip), vehicle: saline 102 % of control

CC(=O)Nc1c(OC(C)=O)ccc2cc(Br)ccc12
inactive: dose: 100.0 mg/kg/injection, schedule: Q01DX015 (ip), vehicle: saline 92 % of control | dose: 200.0 mg/kg/injection, schedule: Q01DX015 (ip), vehicle: saline 100 % of control | dose: 400.0 mg/kg/injection, schedule: Q01DX015 (ip), vehicle: saline 92 % of control | dose: 800.0 mg/kg/injection, schedule: Q01DX015 (ip), vehicle: saline 96 % of control

O=C(NNS(=O)(=O)c1ccc([N+](=O)[O-])cc1)c1ccccc1
inactive: [11] 105 % of control | [12] 102 % of control | [13] 100 % of control

CCP(=O)(CC)OCCCCOP(=O)(CC)CC
inactive: dose: 75.0 mg/kg/injection, schedule: Q01DX Z (ip), vehicle: saline 104 % of control | dose: 100.0 mg/kg/injection, schedule: Q01DX Z (ip), vehicle: saline 98 % of control

CC(=O)OCC1OC(OC(C)=O)C(NC(=O)NCCCl)C(OC(C)=O)C1OC(C)=O (stereo not given)
inactive: dose: 100.0 mg/kg/injection, schedule: Q01DX001 (ip), vehicle: other 97 % of control | dose: 200.0 mg/kg/injection, schedule: Q01DX001 (ip), vehicle: other 101 % of control | dose: 400.0 mg/kg/injection, schedule: Q01DX001 (ip), vehicle: other 97 % of control

COc1cc(/C=N/NC(=O)CNC(=O)c2ccc(Cl)cc2Cl)ccc1O
inactive: dose: 50.0 mg/kg/injection, schedule: Q01DX009 (ip), vehicle: saline with Tween-80 91 % of control | dose: 100.0 mg/kg/injection, schedule: Q01DX009 (ip), vehicle: saline with Tween-80 86 % of control | dose: 200.0 mg/kg/injection, schedule: Q01DX009 (ip), vehicle: saline with Tween-80 88 % of control

COc1ccc2c(c1O)[C@]13CCN(C)[C@H](C2)[C@@H]1CCC(=O)C3
inactive: dose: 75.0 mg/kg/injection, schedule: Q01DX001 (ip), vehicle: saline 101 % of control | dose: 150.0 mg/kg/injection, schedule: Q01DX001 (ip), vehicle: saline 106 % of control

NC(CSSCC(N)=NCC12CC3CC(CC(C3)C1)C2)=NCC12CC3CC(CC(C3)C1)C2
inactive: [6] 97 % of control | [7] 105 % of control

O=[As](O)(O)c1ccc(Cl)cc1C(F)(F)F
inactive: dose: 6.25 mg/kg/injection, schedule: Q04DX003 (ip), vehicle: Klucel (hydroxypropylcellulose) (HPC) 97 % of control | [14] 100 % of control | [15] 101 % of control and 103 % of control | [1] 101 % of control | [2] 103 % of control
